Assay results from patent US6340676B2, “4-aryl-1-oxa-9-thia-cyclopenta (b) fluorenes” (American Home Products Corporation, priority 1998, dated 2002).

Assays:
Human recombinant PTP1B = target: T1, Human recombinant PTP1B (Homo sapiens, UniProt P18031); assay type: biochemical
T1 construct: made in house
T1 sequence (P18031 1-435): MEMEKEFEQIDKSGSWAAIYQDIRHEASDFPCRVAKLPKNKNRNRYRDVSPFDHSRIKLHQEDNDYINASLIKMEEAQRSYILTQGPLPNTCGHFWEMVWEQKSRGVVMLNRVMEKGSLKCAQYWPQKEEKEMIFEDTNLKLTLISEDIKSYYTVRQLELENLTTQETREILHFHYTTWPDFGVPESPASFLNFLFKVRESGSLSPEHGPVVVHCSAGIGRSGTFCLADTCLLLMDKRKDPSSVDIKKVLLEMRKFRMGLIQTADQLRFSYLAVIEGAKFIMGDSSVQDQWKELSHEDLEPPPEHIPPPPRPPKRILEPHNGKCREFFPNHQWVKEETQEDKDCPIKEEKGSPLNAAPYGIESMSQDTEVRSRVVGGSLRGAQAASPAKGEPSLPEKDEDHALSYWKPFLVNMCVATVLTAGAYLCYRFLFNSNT

[1] = tested on: rat hepatic microsomal PTPases; conditions: PTPase activity; compounds at 50 μM
diabetic (ob/ob) mice = assay: Blood glucose lowering activity in diabetic (ob/ob) mice; assay type: in vivo; conditions: for % Change Glucose from Vehicle: plasma glucose
Source text: The procedures used and results obtained are briefly described below.
The non-insulin dependent diabetic (NIDDM) syndrome can be typically characterizes by obesity, hyperglycemia, abnormal insulin secretion, hyperinsulinemia and insulin resistance.
In each test procedure, mice [Male or female ob/ob (C57 B1/6J) and their lean litermates (ob/+ or +/+, Jackson Laboratories) ages 2 to 5 months (10 to 65 g)] of a similar age were randomized according to body weight into 4 groups of 10 mice. The mice were housed 5 per cage and are maintained on normal rodent chow with water ad libitum. Mice received test compound daily by gavage (suspended in 0.5 ml of 0.5% methyl cellulose); dissolved in the drinking water; or admixed in the diet. The dose of compounds given ranges from 2.5 to 200 mg/kg body weight/day. The dose is calculated based on the fed weekly body weight and is expressed as active moiety. The positive control, ciglitazone ([…], see Chang, A., Wyse, B., Gilchrist, B., Peterson, T. and Diani, A. Diabetes 32: 830-838, 1983.) was given at a dose of 100 mg/kg/day, which produces a significant lowering in plasma glucose. Control mice received vehicle only.
On the morning of Day 4, 7 or 14 two drops of blood (approximately 50 ul) were collected into sodium fluoride containing tubes either from the tail vein or after decapitation. For those studies in which the compound was administered daily by gavage the blood samples were collected two hours after compound administration. The plasma was isolated by centrifugation and the concentration of glucose is measured enzymatically on an Abbott V. P. Analyzer.
For each mouse, the percentage change in plasma glucose on Day 4, 7 or 14 is calculated relative to the mean plasma glucose of the vehicle treated mice. Analysis of variance followed by Dunett's Comparison Test (one-tailed) are used to estimate the significant difference between the plasma glucose values from the control group and the individual compound treated groups (CMS SAS Release 5.18).

Cc1oc2cc3sc4ccccc4c3c(-c3cc(I)c(O[C@H](C)C(=O)O)c(I)c3)c2c1C [Example 8, (R)-2-[4-(2,3-Dimethyl-1-oxa-9-thia-cyclopenta[b]fluoren-4-yl)-2,6-diiodo-phenoxy]-propionic acid]
IC50 (Human recombinant PTP1B): 0.284 µM
% Change from Control [1]: −58.84%

Cc1oc2cc3sc4ccccc4c3c(-c3cc(I)c(O[C@H](Cc4ccccc4)C(=O)O)c(I)c3)c2c1C [Example 9, (R)-2-[4-(2,3-Dimethyl-1-oxa-9-thia-cyclopenta[b]fluoren-4-yl)-2,6-diiodo-phenoxy]-3-phenyl-propionic acid]
IC50 (Human recombinant PTP1B): 0.074 µM
% Change Insulin from Vehicle (diabetic (ob/ob) mice; dose 10 mg/Kg): −43.43%
% Change Glucose from Vehicle (diabetic (ob/ob) mice; dose 10 mg/Kg, footnote (a): no significant activity (p < 0.05) at this dose): 8.13%
% Change from Control [1]: −72.70%

Cc1oc2cc3sc4ccccc4c3c(-c3ccc(O)cc3)c2c1C [Example 5, 4-(2,3-Dimethyl-1-oxa-9-thia-cyclopenta[b]fluoren-4-yl)-phenol]
melting point: 174 to 175 °C

Ammonium molybdate tetrahydrate [reference compound]
IC50 (Human recombinant PTP1B): 8.7 µM

CC1(COc2ccc(CC3SC(=O)NC3=O)cc2)CCCCC1 (stereo not shown) [Ciglitazone, 5-(4-(1-methylcyclohexylmethoxy)benzyl)-2,4-dione, reference compound]
% Change Insulin from Vehicle (diabetic (ob/ob) mice; dose 100 mg/Kg): −39%
% Change Glucose from Vehicle (diabetic (ob/ob) mice; dose 100 mg/Kg): −43%
